The numbers were not newly measured in patent US8329231B2, “Method of preventing photo-aging with ashwagandha and Indian gooseberry” (Nutragenesis, LLC, priority 2008, dated 2012), which cites them from elsewhere.

The conditions of the data set: values from the literature.

With `O=C1O[C@H]([C@@H](O)CO)C(O)=C1O` [Vitamin C], the “HORAC (published, literature)” value is 0 units.
